The values below come from paper PMC5355960, “Specific inhibition of CK2α from an anchor outside the active site” (Chemical Science, 2016).

Read-outs that look alike come from different tables or passages of the source.

The test system of test [1] is HCT116 cells. Conditions: 72 hours.
Test [2] has as its system Jurkat cells. Particulars: 72 hours.
In test [3] the test system is A549 cells. Conditions: 72 hours.
Test [4] deals with HCT116 cells. In words: cells. Conditions: Homo sapiens, HCT-116, 72 h.
Test [5] concerns Jurkat cells. In words: cells. Particulars: Homo sapiens, 72 h.
For test [6], the system named is A549 cells. In words: cells. Particulars: Homo sapiens, A549, 72 h.
For the next test, the system named is CLK1. Particulars: read-out: IC50 CLK1; ref PLOS ONE (2014) 9:4; cited from earlier work.
Test [7] concerns CLK3. Conditions: read-out: IC50 CLK3; ref PLOS ONE (2014) 9:4; cited from earlier work.
The test system of test [8] is CK2α. Particulars: read-out: IC50 CK2α; ref J.Med. Chem. (2011) 54:2:635; cited from earlier work.
The next test relates to DAPK3. Conditions: read-out: IC50 DAPK3; ref J.Med. Chem. (2011) 54:2:635; cited from earlier work.
The next test deals with TBK1. Conditions: read-out: IC50 TBK1; ref J.Med. Chem. (2011) 54:2:635; cited from earlier work.
The test system of the next test is FLT3. Conditions: read-out: IC50 FLT3; ref J.Med. Chem. (2011) 54:2:635; cited from earlier work.
Test [9] has as its system PIM1. Conditions: read-out: IC50 PIM1; ref J.Med. Chem. (2011) 54:2:635; cited from earlier work.
Test [10] relates to PIM1. Conditions: read-out: IC50 PIM1; ref Biorg. Med. Chem. Lett. (2011) 21;22;6687; cited from earlier work.
The subject of test [11] is CLK3. Conditions: read-out: IC50 CLK3; ref J.Med. Chem. (2011) 54:2:635; cited from earlier work.
For another test, the system named is CDK1/Cyclin B. Conditions: read-out: IC50 CDK1/Cyclin B; ref J.Med. Chem. (2011) 54:2:635; cited from earlier work.
In the next test the test system is HIPK3. Particulars: read-out: IC50 HIPK3; ref J.Med. Chem. (2011) 54:2:635; cited from earlier work.
The next test deals with PIM2. Particulars: read-out: IC50 PIM2; ref Biorg. Med. Chem. Lett. (2011) 21;22;6687; cited from earlier work.
The test system of another test is CDK2/Cyclin E. Particulars: read-out: IC50 CDK2/Cyclin E; ref Eur. J. Med. Chem. (2014) 78:217-224; cited from earlier work.
In another test the test system is 238 kinases. Conditions: cited from earlier work.
The subject of a further test is 102 kinases. Particulars: cited from earlier work.
Test [12] deals with CK2α (Homo sapiens, UniProt P68400). Particulars: for ΔH / ΔS: ITC.
Test [13] relates to HCT116, Jurkat and A549 cells. Conditions: A549 vs IC50 (for pro-CAM4066: IC50 of CAM4066).
Setting [14] is: HCT116, 2 × GI50, all time points (24, 48, 72 hours).

CK2α, sequence (P68400 2-329): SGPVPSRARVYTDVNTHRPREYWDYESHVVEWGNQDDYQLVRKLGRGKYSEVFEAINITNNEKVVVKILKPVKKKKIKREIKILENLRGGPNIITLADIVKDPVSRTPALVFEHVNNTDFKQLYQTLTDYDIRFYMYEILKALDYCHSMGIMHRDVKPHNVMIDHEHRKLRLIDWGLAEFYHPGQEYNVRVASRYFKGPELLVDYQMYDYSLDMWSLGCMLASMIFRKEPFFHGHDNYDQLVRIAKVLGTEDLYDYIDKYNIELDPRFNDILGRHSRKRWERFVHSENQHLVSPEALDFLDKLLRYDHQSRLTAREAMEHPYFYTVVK

`O=C(O)c1ccc2c(c1)nc(Nc1cccc(Cl)c1)c1ccncc12` [CX4945]: the GI50 in the test on HCT116 cells [1] turned out to be 5 µM; in the test on Jurkat cells [2], 4.7 µM; in the test with A549 cells [3], 16.6 µM; in the test with HCT116 cells [4] it was 4.8 µM; with Jurkat cells [5], 5 µM; with A549 cells [6] it was 17 µM. In addition, the “inhibition of the phosphorylation of AKT1 Ser129” value with AKT1 phosphoserine 129 (setting [14]) is “very clear inhibition”. For the same molecule, the “inhibition of the phosphorylation of CDC37 Ser13” value in the test with Cdc37 phosphoserine 13 (HCT116, 2 × GI50, 24 hours) is reported as “reduced inhibition”; in the test with Cdc37 phosphoserine 13 (setting [14]), “very clear inhibition”. The IC50 is 82 nM in the test on CLK1; 90 nM in the test with CLK3 [7]; […] in the test on CK2α [8]; 17 nM in the test on DAPK3; 35 nM with TBK1; 55 nM in the test on FLT3. Further, the IC50 in the test with PIM1 [9] was 46 nM; in the test on PIM1 [10] it was 48 nM; in the test with CLK3 [11] it was 41 nM; with CDK1/Cyclin B, 56 nM; in the test with HIPK3 it was 45 nM; in the test on PIM2 it was 186 nM. In the test with CDK2/Cyclin E, the IC50 was 1800 nM. In addition, in the test with 238 kinases (0.5 μM, screen size 238 kinases), the “number of other kinases inhibited by 70% or greater” value is recorded as 26. Moreover, in the test on 238 kinases, the “number of other kinases inhibited with nanomolar IC50 values” is given as “at least twelve”. Also, the Gini coefficient in the test on 238 kinases (larger literature panel) was […].
For the molecule `O=C(O)c1ccc2c(c1)nc(Nc1cccc(C(F)(F)F)c1)c1nc(NC3CC3)ncc12` [CX5279], the “number of other kinases inhibited by 70% or greater” value with 102 kinases (0.5 μM, 102 kinases) is listed as 4. The Gini coefficient with 102 kinases (larger literature panel) was 0.755.
With `CCCOc1ccc(CN)cc1Cl.Cl` [compound 3], on CK2α [12], the ΔH was -5047 cal/mol and the ΔS is reported as -2.28 cal/mol/deg.
At CK2α [12], `Cc1ccc(O)c(C(=O)O)c1` [compound 5] gave a ΔH of -7722 cal/mol and a ΔS of -6.51 cal/mol/deg.
`Nc1cccc(C(=O)O)c1` [compound 6]: at CK2α [12], the “detectable binding by ITC” value is on record as “no inhibition of phosphorylation at 500 μM or detectable binding by ITC”.
`COC(=O)c1cccc(NC(=O)CCNC(=O)CCNCc2ccc(-c3ccccc3)c(Cl)c2)c1` [pro-CAM4066]: the GI50 is 8.8 µM in the test with HCT116 cells [1]; 6.3 µM with Jurkat cells [2] (listed as 8); 20.2 µM with A549 cells [3] (listed as 8); 9 µM with HCT116 cells [4]; 6 µM in the test on Jurkat cells [5]; 20 µM in the test with A549 cells [6]. Further, the “inhibition of the phosphorylation of AKT1 Ser129” value in the test with AKT1 phosphoserine 129 (HCT116, 2 × GI50, 24 hours) is given as “approximately 50%”. The “inhibition of the phosphorylation of CDC37 Ser13” value in the test on Cdc37 phosphoserine 13 (HCT116, 2 × GI50, 48 and 72 hours) was “the inhibition did increase”; with Cdc37 phosphoserine 13 (HCT116, 2 × GI50, 24 hours), “no inhibition”. The “drop-off in the GI50 compared to the IC50” value in [13] was 19-60 fold.

By GI50 is commonly meant the concentration giving 50% growth inhibition. The low end stands for more potent growth inhibition, the high end for less potent growth inhibition.
